Source: article PMC5855764, “Analysis of Peptide Ligand Specificity of Different Insect Adipokinetic Hormone Receptors” (International Journal of Molecular Sciences, 2018)

How the values were obtained:
[1] = tested on: seven different insect AKH receptors; assay: Aequorin-based bioluminescent calcium assay in CHO-WTA11 cells, statements for all seven receptors together; type: cell-based; details: peptide at micromolar concentrations; all analysed AKHRs
From the text: (§1) We expressed the different insect AKH receptors in Chinese hamster ovary (CHO) WTA11 cells, stably expressing apo-aequorin, a zeocin resistance gene and the promiscuous Gα16 subunit coupling to the phospholipase C and Ca^2+ signaling cascade (Euroscreen, Brussels, Belgium). The AKH from each species elicited a clear dose-dependent response in the bioluminescent calcium assay of its conspecific receptor, with an EC50 value in the low nanomolar range (Figure 3).
(§2) We analyzed the activity of the different AKH receptors using CHO-WTA11 cells, which contain a promiscuous Gα16 subunit that will induce an intracellular Ca^2+-increase upon receptor binding independent of the receptors’ natural signaling cascade (see also [48]). […]
(§3) For transfection of the cells (T75 flasks at 60–80% confluency), we dissolved 5 µg pcDNA3.1-receptor or empty pcDNA3.1 vector in 2.5 mL Opti-MEM® (Gibco) supplemented with 12.5 µL Plus™ Reagent of the Lipofectamine LTX Kit (Invitrogen) in 5 mL polystyrene round-bottom tubes. […] We monitored ligand-induced changes in intracellular Ca^2+ in the cells as described below. […]

HylabAKHR = assay: Aequorin-based bioluminescent calcium assay in CHO-WTA11 cells; type: cell-based, Hylobius abietis; details: peptide at micromolar concentrations; relative to cognate AKH
From the text: as §1, §2, §3

TricaAKHR = assay: as above; type: cell-based, Tribolium castaneum; details: peptide at micromolar concentrations; relative to cognate AKH
From the text: as §1, §2, §3

AcypiAKHR = assay: as above; type: cell-based, Acyrthosiphon pisum; details: peptide at micromolar concentrations; relative to cognate AKH
From the text: as §1, §2, §3

Q: How did the AKHR activation [1] turn out when pQVTF--SRDWNAamide [ACP] was run?
A: Its AKHR activation is “only very low levels of AKHR activation”.

Q: Which results are given for pQ-TFQYSHGWTNamide [Crz, corazonin]?
A: AKHR activation [1]: not able to activate any of the AKHRs that were analyzed to same extent as the endogenous AKHs; receptor activation (HylabAKHR): very limited activation; receptor activation (TricaAKHR): very limited activation; receptor activation (AcypiAKHR): very limited activation
